# Key:
# [1] = Randomized double-blind placebo-controlled clinical study with paclitaxel: hypersensitivity Adverse Events by infusion time and concentration (FIG. 1); type: in vivo, human; details: for proportion of patients with at least one hypersensitivity Adverse Event: entire treated population: paclitaxel plus either placebo or drug (1:1)
# Experimental: FIG. 1 illustrates a comparison of the number of hypersensitivity Adverse Events between groups of patients in whom 2,2′-dithio-bis-ethane sulfonate or a placebo was infused over (1) 30 minutes, (2) 30 and 45 minutes, or (3) 45 minutes. The chemotherapeutic agent administered was paclitaxel. In this Figure, n=#, equals the number of patients.
# New methods of administration of agents such as 2,2′-dithio-bis-ethane sulfonate, pharmaceutically-acceptable salts, and/or an analog thereof, have now been discovered in connection with a human clinical study comprising a randomized, double-blind, placebo-controlled study with a 1:1 randomization. Initial blinded study results support the ability of compounds such as 2,2′-dithio-bis-ethane sulfonate to markedly enhance overall safety, decrease overall Adverse Events, decrease hypersensitivity-based Adverse Events, and increase the time of Adverse Event onset, while maintaining at least the same therapeutic indices (e.g. dose level administered in a prescribed specific time schedule, including duration of administration and frequency), and reduction, prevention, mitigation, and/or delay of toxicities associated with the administration of chemotherapeutic agents.
# This reduction in the proportion of patients experiencing hypersensitivity reactions overall represents a medically significant difference in such adverse reactions. It represents a reduction in the risk of an observed potentially serious and life-threatening Adverse Event by approximately 29% in the entire study population (i.e., both placebo and 2,2′-dithio-bis-ethane sulfonate populations).
# FIG. 1 illustrates a comparison of the number of hypersensitivity Adverse Events between groups of patients in whom 2,2′-dithio-bis-ethane sulfonate or a placebo was infused over (1) 30 minutes, (2) 30 minutes and 45 minutes, or (3) 45 minutes. In addition, the total number of hypersensitivity Adverse Events, the mean time to the first hypersensitivity Adverse Event, and a variety of the types of hypersensitivity Adverse Events were also shown. […] This reduction in the proportion of patients experiencing hypersensitivity Adverse Events overall represents a reduction in the risk of an observed potentially serious and life-threatening Adverse Event by approximately 29% in the entire study population (i.e., both placebo and disodium 2,2′-dithio-bis-ethane sulfonate populations).
# [2] = system: paclitaxel-induced thermoparesthesia; assay: Paclitaxel-induced thermoparesthesia model; type: in vivo, rats
# [3] = system: paclitaxel-induced decreases in NCV; assay: Paclitaxel-induced decrease in nerve conduction velocity (NCV); type: in vivo; details: rats; paclitaxel 6 mg/kg i.v. 5 times every other day; 1,000 mg/kg i.v. immediately after paclitaxel
# [4] = system: sciatic and tibial nerves; assay: Histopathological abnormalities of sciatic and tibial nerves caused by paclitaxel; type: in vivo; details: paclitaxel 30 mg/kg i.v. every other day (3 doses); 2,000 mg/kg i.v. immediately after paclitaxel
# [5] = system: decreases in NCV by cisplatin; assay: Cisplatin-induced decrease in nerve conduction velocity (NCV); type: in vivo; details: rats, cisplatin 2 mg/kg i.p. twice a week for 6 weeks, 1,000 mg/kg i.v. immediately before cisplatin
# Experimental: Effects of the Formula (I) compound, Tavocept™ (dimesna; disodium 2,2′-dithio-bis-ethane sulfonate), on decreases in nerve conduction velocity (NCV) induced by cisplatin (2 mg/kg) administered by i.p. injection twice a week for 6 consecutive weeks were evaluated in rats.
# [6] = Japan Phase III Clinical Trial, NSCLC patients receiving paclitaxel and cisplatin; type: in vivo, human
# Experimental: (§1) The Japan Phase III Clinical Trial was conducted as a double-blind study because peripheral neuropathy is diagnosed based on subjective symptoms evaluated through clinical interviews, lab tests, and the like. Accordingly, evaluations by both physicians and patients are highly important. […] A placebo was used as control since there is no established therapy or drug for preventing peripheral neuropathy. Because the severity of peripheral neuropathy is evaluated based on patients' reports (i.e., subjective symptoms), the Patient Neurotoxicity Questionnaire (PNQ©) (also known as the Peripheral Neuropathy Questionnaire) was used in primary evaluation. The CIPN-20 questionnaire and the National Cancer Institute-Common Toxicity Criteria (NCI-CTC) were used in secondary evaluation. The incidence and severity of adverse reactions, time to their onset, etc. and the like, were compared between patients treated with Tavocept™ and those given a placebo using the aforementioned methods.
# (§2) The Primary Endpoint of the Japan Phase III Clinical Trial described in the present invention was specifically designed to test the hypothesis of whether chemotherapy-induced intermittent peripheral neuropathy would occur. The utilization of physical examination, laboratory tests, and highly detailed patient evaluation, especially utilizing the Patient Neurotoxicity Questionnaire (PNQ©), also known as the Peripheral Neuropathy Questionnaire, was responsible for the identification and characterization of this novel intermittent form of chemotherapy-induced peripheral neuropathy. The results illustrated in FIG. 3 indicate that intermittent peripheral neuropathy was specifically identified and measured in the Japan Phase III Clinical Trial. […] Additionally, the results illustrated in FIG. 4 and FIG. 5 also support the finding that the Formula (I) compound, Tavocept™, can mitigate and/or prevent intermittent peripheral neuropathy. FIG. 4 provides data supporting the merit of utilizing the Patient Neurotoxicity Questionnaire (PNQ©), also known as the Peripheral Neuropathy Questionnaire, and the Generalized Estimating Equation (GEE) statistical method to evaluate intermittent and cumulative peripheral neuropathy.
# [7] = system: chemotherapy-induced peripheral neuropathy; assay: as above; type: in vivo, human; details: NSCLC; paclitaxel/Tavocept/cisplatin vs paclitaxel/saline placebo/cisplatin
# Experimental: as §1, §2
# tubulin = details: in vitro; paclitaxel 6 μM; cited from earlier work
# [8] = after intravenous administration; intracellular glutathione as a cofactor; cited from earlier work
# [9] = in vivo; cited from earlier work
structure (smiles),measurement,setting,value
"O=S(=O)([O-])CCSSCCS(=O)(=O)[O-].[Na+].[Na+] [Tavocept™, disodium 2,2′-dithio-bis-ethane sulfonate]",proportion of patients with at least one hypersensitivity Adverse Event,[1]; 100 mg/mL over 45 minutes,approximately 30%
same,proportion of patients with at least one hypersensitivity Adverse Event,[1]; 200 mg/mL over 30 minutes,approximately 42%
same,reduction in the overall proportion of patients experiencing hypersensitivity reactions,"[1]; 45 min 100 mg/mL vs 30 min 200 mg/mL, absolute difference",approximately 12%
same,reduction in hypersensitivity Adverse Events in the drug treatment population,"[1]; 45 min 100 mg/mL vs 30 min 200 mg/mL, assumes no placebo effect",≤ 57%
same,reduction in the risk of hypersensitivity Adverse Event in the entire study population,"[1]; 45 min 100 mg/mL vs 30 min 200 mg/mL, placebo and drug populations together",approximately 29%
same,inhibition rates of thermoparesthesia caused by paclitaxel,"[2]; paclitaxel 12 mg/kg i.p. once a week for 5 weeks, 2,000 mg/kg i.v. immediately after paclitaxel",19.2-34.1%
same,maximum inhibition rate of paclitaxel-induced thermoparesthesia,"[2]; rats, paclitaxel 6 mg/kg i.v. 5 times every other day, 1,000 mg/kg",41.7%
same,inhibition of paclitaxel-induced thermoparesthesia,"[2]; rats, paclitaxel 6 mg/kg i.v. 5 times every other day, 1,000 mg/kg i.v. immediately after paclitaxel",27.5-59.2%
same,maximum inhibition rate of paclitaxel-induced thermoparesthesia,"[2]; rats, paclitaxel 6 mg/kg i.v. 5 times every other day, 2,000 mg/kg",41.5%
same,inhibition of paclitaxel-induced decreases in NCV,[3],92.2%
same,increases in the incidence of histopathological abnormalities of the sciatic and tibial nerves,[4],inhibited
same,inhibition rate of decreases in NCV by cisplatin,[5]; 5 weeks after starting cisplatin,53.6%
same,inhibition rate of decreases in NCV by cisplatin,[5]; 6 weeks after starting cisplatin,64.7%
same,survival of patients with NSCLC,[6]; Tavocept and chemotherapy,medically important increase in survival
same,survival time of patients with adenocarcinoma,[6]; Tavocept and chemotherapy,medically important increase in survival time
same,"chemotherapy-induced anemia, nausea/vomiting, fatigue, and kidney damage",[6]; clinical trial population,medically important reductions
same,"hematological function (hemoglobin, hematocrit, erythrocyte levels)",[6]; patients with non-small cell lung carcinoma and adenocarcinoma,maintenance or stimulation of hematological function
same,reduction in severe (Grade D or E) intermittent or cumulative peripheral neuropathy (FIG. 5),[7],~50%
same,concentration at which tubulin polymerization induced by paclitaxel is inhibited,tubulin,6 mM
same,uptake and metabolism,[8],rapidly taken up in the kidney and metabolized into mesna
N.N.[Cl][Pt][Cl] [cisplatin],cumulative dose above which cisplatin-induced neuropathy usually occurs,[9],exceeds 300 mg/m^2

# — patent publication US8143236B2, “Chemoprotective methods” (BioNumerik Pharmaceuticals, Inc., priority 2006, dated 2012)
